The values that follow come from patent publication US20250268903A1, “RXFP1 AGONISTS” (BRISTOL-MYERS SQUIBB COMPANY, priority 2021, published 2025).

The pEC50 is −log10 of the EC50, conventionally taken in molar units. High values mean a low EC50, low ones a high EC50.

pEC50: −log10 of the molar value.

The assay addresses T1, human RXFP1 (Homo sapiens, UniProt Q9HBX9).
T1 construct: expressed in transfected cells
T1 sequence (Q9HBX9 1-757): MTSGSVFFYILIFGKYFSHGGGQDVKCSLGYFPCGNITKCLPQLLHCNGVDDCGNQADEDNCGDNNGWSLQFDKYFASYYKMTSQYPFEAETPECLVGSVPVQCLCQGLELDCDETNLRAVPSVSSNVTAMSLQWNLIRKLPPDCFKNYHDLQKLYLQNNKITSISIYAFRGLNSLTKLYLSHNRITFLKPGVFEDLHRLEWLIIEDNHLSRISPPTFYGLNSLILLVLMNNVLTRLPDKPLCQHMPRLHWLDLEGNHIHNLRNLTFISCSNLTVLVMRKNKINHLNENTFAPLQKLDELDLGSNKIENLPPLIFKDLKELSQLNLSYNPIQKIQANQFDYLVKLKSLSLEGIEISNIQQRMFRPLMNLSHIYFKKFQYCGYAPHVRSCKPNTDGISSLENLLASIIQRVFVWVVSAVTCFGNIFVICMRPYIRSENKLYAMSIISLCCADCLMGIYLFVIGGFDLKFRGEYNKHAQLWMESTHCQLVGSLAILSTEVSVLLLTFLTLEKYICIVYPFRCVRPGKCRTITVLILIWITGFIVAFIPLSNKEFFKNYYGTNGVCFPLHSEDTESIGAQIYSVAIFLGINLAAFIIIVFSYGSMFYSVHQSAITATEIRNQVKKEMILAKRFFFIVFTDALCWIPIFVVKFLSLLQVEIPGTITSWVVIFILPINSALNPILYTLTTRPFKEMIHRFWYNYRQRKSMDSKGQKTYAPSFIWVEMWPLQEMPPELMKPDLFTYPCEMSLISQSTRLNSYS
Kind of assay: hRXFP1 HEK293 cAMP assay (HTRF). The conditions noted are these: HEK293 cells stably expressing human RXFP1, 30 min at room temperature. The assay is classed as cell-based. The method in brief: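 Potency and activity come from a four-parameter logistic fit of cAMP against compound concentration, tested from 0.010 nM up to 50 μM. The assay uses HEK293 cells stably expressing human RXFP1, incubated 30 min at ambient temperature with phosphodiesterase inhibitor IBMX present.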
On to `COc1ccc([C@@H]2CCC(CC(C)(C)O)C2)cc1C(=O)N[C@H]1[C@@H](C(=O)Nc2ccc(F)c(C(F)(F)F)c2)[C@H]2CC[C@@H]1/C2=C\C1CCCC1` (stereo partly drawn) [Example 362, (1R,2S,3R,4R,Z)-7-(cyclopentyl-methylene)-N-(4-fluoro-3-(trifluoromethyl)phenyl)-3-(5-((1R)-3-(2-hydroxy-2-methylpropyl)cyclopentyl)-2-methoxybenzamido) bicyclo[2.2.1] heptane-2-carboxamide], for which the pEC50 is 8.52. `COc1c(F)cc(C(=O)NCC2(S(C)(=O)=O)CC2)cc1C(=O)N[C@H]1[C@@H](C(=O)N[C@H](C)C2(C)CC2)[C@H]2CC[C@@H]1/C2=C\C1CC1` [Example 369, N3-[(1R,2R,3S,4R,7Z)-7-(cyclopropyl-methylidene)-3-{[(1R)-1-(1-methylcyclopropyl)ethyl]carbamoyl}bicyclo[2.2.1]heptan-2-yl]-5-fluoro-N1-[(1-methanesulfonyl-cyclopropyl)methyl]-4-methoxybenzene-1,3-dicarboxamide]: the pEC50 was 8.52. Take `COc1cc(F)c(O[C@H]2CC[C@](C)(C(=O)O)CC2)cc1C(=O)N[C@H]1[C@@H](C(=O)NCC2(C)CCC2)[C@H]2CC[C@@H]1/C2=C\C1CC1` [Example 377, (1R,4r)-4-(5-(((1R,2R,3S,4R,Z)-7-(cyclopropyl-methylene)-3-(((1-methylcyclobutyl)methyl)carbamoyl)bicyclo[2.2.1]heptan-2-yl)carbamoyl)-2-fluoro-4-methoxyphenoxy)-1-methylcyclohexane-1-carboxylic acid]: the pEC50 was 7.23. The compound `COc1ccc(S(=O)(=O)N2CC3CCC(C2)O3)cc1C(=O)N[C@H]1[C@@H](C(=O)Nc2ccc(F)c(C(F)(F)F)c2)[C@H]2CC[C@@H]1/C2=C\C(F)(F)F` [Example 214, (1R,2S,3R,4R,7Z)-N-[4-fluoro-3-(trifluoromethyl)phenyl]-3-(2-methoxy-5-{8-oxa-3-azabicyclo[3.2.1]octane-3-sulfonyl}benzamido)-7-(2,2,2-trifluoroethylidene) bicyclo[2.2.1] heptane-2-carboxamide] gave a pEC50 of 6.57. In turn, `COc1ccc(C2CCCC(OC(=O)Nc3ccccc3)C2)cc1C(=O)N[C@@H]1C2CCC(/C2=C/C(F)(F)F)[C@@H]1C(=O)Nc1ccc(F)c(C(F)(F)F)c1` (single isomer, unassigned) [Example 43] gave a pEC50 of 6.80.

In the case of `COc1ccc(S(=O)(=O)N2CCS(=O)(=O)CC2)cc1C(=O)NC1C2CCC(/C2=C/C(F)(F)F)[C@@H]1C(=O)Nc1ccc(F)c(C(F)(F)F)c1` (stereo partly drawn) [Example 202, (2S,3R,7Z)-3-{5-[(1,1-dioxo-1λ^6-thiomorpholin-4-yl)sulfonyl]-2-methoxybenzamido}-N-[4-fluoro-3-(trifluoromethyl)phe-nyl]-7-(2,2,2-trifluoroethylidene)bi-cyclo[2.2.1]heptane-2-carboxamide], the pEC50 was 6.73. Compound `COc1ccc(C2CC3CC(CO)CC32)cc1C(=O)N[C@H]1[C@@H](C(=O)Nc2ccc(F)c(C(F)(F)F)c2)[C@H]2CC[C@@H]1/C2=C\C1CC1` (single isomer, unassigned) [Example 348] had a pEC50 of 7.47. Turning to `COc1ccc(/C=C(\C)C(=O)N2CCC(O)CC2)cc1C(=O)N[C@H]1[C@@H](C(=O)Nc2ccc(F)c(C(F)(F)F)c2)[C@H]2CC[C@@H]1/C2=C\C(F)(F)F` [Example 312, (1R,2S,3R,4R,7Z)-N-[4-fluoro-3-(trifluoromethyl)phenyl]-3-{5-[(1E)-3-(4-hydroxypiperidin-1-yl)-2-methyl-3-oxoprop-1-en-1-yl]-2-methoxybenzamido}-7-(2,2,2-trifluoroethylidene) bicyclo[2.2.1]heptane-2-carboxamide], the pEC50 is 7.50. The same measure for `COc1ccc(C2CCCC(NCC(=O)O)C2)cc1C(=O)N[C@@H]1C2CCC(/C2=C/C(F)(F)F)[C@@H]1C(=O)Nc1ccc(F)c(C(F)(F)F)c1` (stereo partly shown) [Example 354]: 5.30. `COc1ccc(COCC(=O)O)cc1C(=O)N[C@@H]1C2CCC(/C2=C/c2ccccc2)[C@@H]1C(=O)Nc1ccc(F)c(C(F)(F)F)c1` (stereo partly drawn) [Example 29, 2-[(3-{[(2R,3S,7Z)-3-{[4-fluoro-3-(trifluoromethyl)phe-nyl]carbamoyl}-7-(phenylmethylidene)bicyclo[2.2.1]heptan-2-yl]carbamoyl}-4-methoxyphenyl)meth-oxy]acetic acid] had a pEC50 of 6.40.

Consider `COc1ccc(S(=O)(=O)N(CCO)CCO)cc1C(=O)N[C@H]1[C@@H](C(=O)Nc2ccc(F)c(C(F)(F)F)c2)[C@H]2CC[C@@H]1/C2=C\C(F)(F)F` [Example 217, (1R,2S,3R,4R,7Z)-3-{5-[bis(2-hydroxyethyl)sulfamoyl]-2-methoxybenzamido}-N-[4-fluoro-3-(trifluoromethyl)phenyl]-7-(2,2,2-trifluoroethylidene) bicyclo[2.2.1] heptane-2-carboxamide], for which the pEC50 is 6.66. `COc1ccc(COCC2CC(O)C2)cc1C(=O)N[C@H]1[C@@H](C(=O)Nc2ccc(F)c(C(F)(F)F)c2)[C@H]2CC[C@@H]1/C2=C\C1CC1` (stereo partly drawn) [Example 291, (1R,2S,3R,4R,7Z)-7-(cyclopropyl-methylidene)-N-[4-fluoro-3-(trifluoromethyl)phenyl]-3-(5-{[(3-hydroxycyclobutyl)methoxy]methyl}-2-methoxybenzamido) bicyclo[2.2.1] heptane-2-carboxamide] gave a pEC50 of 8.65. The figure for `COc1ccc(C#CCCCCOC(=O)NC2CCC2)cc1C(=O)N[C@@H]1C2CCC(/C2=C/C(F)(F)F)[C@@H]1C(=O)Nc1ccc(F)c(C(F)(F)F)c1` (stereo partly drawn) [Example 81, 6-(3-{[(2R,3S,7Z)-3-{[4-fluoro-3-(trifluoromethyl)phe-nyl]carbamoyl}-7-(2,2,2-trifluoroethylidene)bi-cyclo[2.2.1]heptan-2-yl]carbamoyl}-4-methoxyphenyl)hex-5-yn-1-yl N-cyclobutylcarbamate] is 6.43; for “(1R,4R,7Z)-N-[4- fluoro-3- (trifluoromethyl) phenyl]-3-[5-(3- hydroxypropyl)-2- methoxybenzamido]- 7-[(oxolan-3- yl)methylidene] bicyclo[2.2.1] heptane- 2-carboxamide [Example 264]” it is 6.34. Regarding `COc1ccc(C(=O)NCC2(S(C)(=O)=O)CC2)cc1C(=O)N[C@H]1[C@@H](C(=O)Nc2ccc(F)c(C(F)(F)F)c2)[C@H]2CC[C@@H]1/C2=C\C1CC1` [Example 232, N3-[(1R,2R,3S,4R,7Z)-7-(cyclopropyl-methylidene)-3-{[4-fluoro-3-(trifluoromethyl)phenyl]carbamoyl}bicyclo[2.2.1]heptan-2-yl]-NI-[(1-methanesulfonyl-cyclopropyl)methyl]-4-methoxybenzene-1,3-dicarboxamide], the pEC50 is 9.02. Consider `COc1ccc(CC[C@@H](C)O)cc1C(=O)N[C@@H]1C2CCC(/C2=C/C2CC2)[C@@H]1C(=O)Nc1ccc(F)c(C(F)(F)F)c1` (stereo partly drawn) [Example 95, (2S,3R,7Z)-7-(cyclopropylmethyli-dene)-N-[4-fluoro-3-(trifluoromethyl)phe-nyl]-3-{5-[(3R)-3-hydroxybutyl]-2-methoxybenzamido} bicyclo[2.2.1]heptane-2-carboxamide], for which the pEC50 was 7.30. `COc1ccc(C(C)(C)CCO)cc1C(=O)N[C@H]1[C@@H](C(=O)Nc2ccc(F)c(C(F)(F)F)c2)[C@H]2CC[C@@H]1/C2=C\C(F)(F)F` [Example 272, (1R,2S,3R,4R,7Z)-N-[4-fluoro-3-(trifluoromethyl)phenyl]-3-[5-(4-hydroxy-2-methylbutan-2-yl)-2-methoxybenzamido]-7-(2,2,2-trifluoroethylidene) bicyclo[2.2.1]heptane-2-carboxamide] showed a negative-log EC50 (pEC50) of 6.37.

`COc1ccc(CCCNC(=O)C2CCC2)cc1C(=O)N[C@@H]1C2CCC(/C2=C/C(F)(F)F)[C@@H]1C(=O)Nc1ccc(F)c(C(F)(F)F)c1` (stereo partly drawn) [Example 112, (2S,3R,7Z)-3-{5-[3-(cyclobutylformami-do)propyl]-2-methoxybenzamido}-N-[4-fluoro-3-(trifluoromethyl)phe-nyl]-7-(2,2,2-trifluoroethylidene)bi-cyclo[2.2.1]heptane-2-carboxamide] had a pEC50 of 6.49. Compound `COc1ccc(CCCO)cc1C(=O)NC1C2CCC(/C2=C/C2CCCOC2)[C@@H]1C(=O)Nc1ccc(F)c(C(F)(F)F)c1` (single isomer, unassigned) [Example 170, (7Z)-N-[4-fluoro-3-(trifluoromethyl)phe-nyl]-3-[5-(3-hydroxypropyl)-2-methoxybenzamido]-7-[(oxan-3-yl)methylidene]bicy-clo[2.2.1]heptane-2-carboxamide] gave a pEC50 of 7.29.
